In ChEMBL document CHEMBL4507272 (2021):

Legend:
[1] = target: Mitogen-activated protein kinase 7 (Homo sapiens) (UniProt Q13164); details: Compound concentration 1000.0 nM
[2] = target: Myosin light chain kinase 2, skeletal/cardiac muscle (Homo sapiens) (UniProt Q9H1R3); details: Compound concentration 1000.0 nM
[3] = test system: Tyrosine-protein kinase ABL1 (Homo sapiens), P00519 [H396P]; details: Compound concentration 1000.0 nM
[4] = test system: Receptor-type tyrosine-protein kinase FLT3 (Homo sapiens), P36888 [D835V]; details: Compound concentration 1000.0 nM
[5] = target: Epithelial discoidin domain-containing receptor 1 (Homo sapiens) (UniProt Q08345); details: Compound concentration 1000.0 nM
[6] = target: Serine/threonine-protein kinase 25 (Homo sapiens) (UniProt O00506); details: Compound concentration 1000.0 nM
Serine/threonine-protein kinase 25 (Homo sapiens), sequence (O00506 whole entry, looked up): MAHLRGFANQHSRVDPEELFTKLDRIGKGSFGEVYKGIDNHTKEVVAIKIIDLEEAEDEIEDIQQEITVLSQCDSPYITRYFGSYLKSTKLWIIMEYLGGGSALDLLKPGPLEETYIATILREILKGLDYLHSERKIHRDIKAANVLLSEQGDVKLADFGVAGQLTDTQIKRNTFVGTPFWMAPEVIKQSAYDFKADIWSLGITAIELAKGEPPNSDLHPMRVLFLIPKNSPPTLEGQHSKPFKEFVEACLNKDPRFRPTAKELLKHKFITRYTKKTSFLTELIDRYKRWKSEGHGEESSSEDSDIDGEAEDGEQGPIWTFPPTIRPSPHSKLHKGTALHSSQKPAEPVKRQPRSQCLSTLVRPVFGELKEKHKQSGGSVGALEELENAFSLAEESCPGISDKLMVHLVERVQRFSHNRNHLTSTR

[7] = target: Serine/threonine-protein kinase Nek1 (Homo sapiens) (UniProt Q96PY6); details: Compound concentration 1000.0 nM
[8] = target: Serine/threonine-protein kinase WNK2 (Homo sapiens) (UniProt Q9Y3S1); details: Compound concentration 1000.0 nM
[9] = target: Histamine H2 receptor (Homo sapiens) (UniProt P25021); details: Compound concentration 10.0 uM
[10] = test system: Mast/stem cell growth factor receptor Kit (Homo sapiens), P10721 [V559D,T670I]; details: Compound concentration 1000.0 nM
[11] = target: G protein-coupled receptor kinase 3 (Homo sapiens) (UniProt P35626); details: Compound concentration 1000.0 nM
G protein-coupled receptor kinase 3 (Homo sapiens), sequence (P35626 whole entry): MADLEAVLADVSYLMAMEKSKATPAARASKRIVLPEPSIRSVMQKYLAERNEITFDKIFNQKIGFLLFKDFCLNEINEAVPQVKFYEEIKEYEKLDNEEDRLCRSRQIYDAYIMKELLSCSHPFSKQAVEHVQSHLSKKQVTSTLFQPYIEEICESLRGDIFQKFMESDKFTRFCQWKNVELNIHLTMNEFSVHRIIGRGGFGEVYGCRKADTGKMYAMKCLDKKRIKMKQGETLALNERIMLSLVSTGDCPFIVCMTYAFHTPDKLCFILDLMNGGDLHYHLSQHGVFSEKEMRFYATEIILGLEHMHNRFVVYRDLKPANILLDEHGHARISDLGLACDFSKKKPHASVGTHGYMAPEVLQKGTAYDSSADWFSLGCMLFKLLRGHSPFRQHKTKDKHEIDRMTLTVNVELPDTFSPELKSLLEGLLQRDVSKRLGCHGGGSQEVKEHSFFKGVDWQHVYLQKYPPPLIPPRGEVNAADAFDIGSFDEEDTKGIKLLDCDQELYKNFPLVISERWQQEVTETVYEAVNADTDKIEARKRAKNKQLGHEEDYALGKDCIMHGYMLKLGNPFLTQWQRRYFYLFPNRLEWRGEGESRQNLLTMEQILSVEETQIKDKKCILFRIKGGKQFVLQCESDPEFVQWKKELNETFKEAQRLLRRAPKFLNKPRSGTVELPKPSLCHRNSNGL

[12] = target: Serine/threonine-protein kinase tousled-like 1 (Homo sapiens) (UniProt Q9UKI8); details: Compound concentration 1000.0 nM
[13] = target: 5-hydroxytryptamine receptor 5A (Homo sapiens) (UniProt P47898); details: Compound concentration 10.0 uM
[14] = target: BMP-2-inducible protein kinase (Homo sapiens) (UniProt Q9NSY1); details: Compound concentration 1000.0 nM
[15] = target: 5-hydroxytryptamine receptor 7 (Homo sapiens) (UniProt P34969); details: Compound concentration 10.0 uM
[16] = target: Serine/threonine-protein kinase D2 (Homo sapiens) (UniProt Q9BZL6); details: Compound concentration 1000.0 nM
[17] = test system: Receptor-type tyrosine-protein kinase FLT3 (Homo sapiens), P36888 [N841I]; details: Compound concentration 1000.0 nM
[18] = target: Ribosomal protein S6 kinase alpha-1 (Homo sapiens) (UniProt Q15418); details: Compound concentration 1000.0 nM
[19] = target: Ephrin type-B receptor 2 (Homo sapiens) (UniProt P29323); details: Compound concentration 1000.0 nM
Ephrin type-B receptor 2 (Homo sapiens), sequence (P29323 whole entry): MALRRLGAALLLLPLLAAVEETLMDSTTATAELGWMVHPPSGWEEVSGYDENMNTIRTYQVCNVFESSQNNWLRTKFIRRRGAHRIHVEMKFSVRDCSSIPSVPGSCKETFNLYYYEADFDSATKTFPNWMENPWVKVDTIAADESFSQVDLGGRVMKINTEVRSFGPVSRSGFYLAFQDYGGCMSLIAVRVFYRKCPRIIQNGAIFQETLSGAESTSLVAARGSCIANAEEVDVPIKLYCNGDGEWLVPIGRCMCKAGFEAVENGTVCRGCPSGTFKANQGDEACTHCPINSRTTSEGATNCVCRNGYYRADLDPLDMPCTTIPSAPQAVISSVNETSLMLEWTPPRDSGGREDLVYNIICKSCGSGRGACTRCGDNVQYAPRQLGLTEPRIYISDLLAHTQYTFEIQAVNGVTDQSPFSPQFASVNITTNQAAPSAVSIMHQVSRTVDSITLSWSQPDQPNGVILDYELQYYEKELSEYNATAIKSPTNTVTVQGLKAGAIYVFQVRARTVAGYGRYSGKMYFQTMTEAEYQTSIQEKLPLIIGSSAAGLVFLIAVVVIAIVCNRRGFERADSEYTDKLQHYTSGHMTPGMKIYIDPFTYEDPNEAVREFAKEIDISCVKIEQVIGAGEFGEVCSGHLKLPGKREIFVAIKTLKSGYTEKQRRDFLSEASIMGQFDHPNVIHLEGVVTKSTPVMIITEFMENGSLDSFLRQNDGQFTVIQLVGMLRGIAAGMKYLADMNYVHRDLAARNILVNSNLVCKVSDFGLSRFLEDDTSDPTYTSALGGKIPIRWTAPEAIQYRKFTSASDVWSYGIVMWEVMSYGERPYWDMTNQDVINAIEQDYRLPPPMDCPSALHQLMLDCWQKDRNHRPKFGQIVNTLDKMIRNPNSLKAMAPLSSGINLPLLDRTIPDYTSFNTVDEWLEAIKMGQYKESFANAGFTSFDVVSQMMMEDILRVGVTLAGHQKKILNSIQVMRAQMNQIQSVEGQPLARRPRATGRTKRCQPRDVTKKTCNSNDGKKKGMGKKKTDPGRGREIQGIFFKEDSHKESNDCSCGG

[20] = target: Serine/threonine-protein kinase Nek6 (Homo sapiens) (UniProt Q9HC98); details: Compound concentration 1000.0 nM
Serine/threonine-protein kinase Nek6 (Homo sapiens), sequence (Q9HC98 whole entry): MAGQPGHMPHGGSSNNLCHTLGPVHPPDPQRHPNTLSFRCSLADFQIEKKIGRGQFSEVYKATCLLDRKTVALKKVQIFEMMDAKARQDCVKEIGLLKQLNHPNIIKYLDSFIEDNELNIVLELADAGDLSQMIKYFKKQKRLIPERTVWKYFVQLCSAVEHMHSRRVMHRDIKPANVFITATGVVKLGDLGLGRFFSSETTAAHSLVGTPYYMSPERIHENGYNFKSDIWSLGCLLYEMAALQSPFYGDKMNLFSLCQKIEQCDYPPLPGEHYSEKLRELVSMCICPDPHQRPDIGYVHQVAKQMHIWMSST

[21] = target: Serine/threonine-protein kinase PLK4 (Homo sapiens) (UniProt O00444); details: Compound concentration 1000.0 nM
[22] = target: Tyrosine-protein kinase ZAP-70 (Homo sapiens) (UniProt P43403); details: Compound concentration 1000.0 nM
[23] = target: Cyclin-dependent kinase 4 (Homo sapiens) (UniProt P11802); details: Compound concentration 1000.0 nM
[24] = target: Mitogen-activated protein kinase kinase kinase 15 (Homo sapiens) (UniProt Q6ZN16); details: Compound concentration 1000.0 nM
[25] = target: Mitogen-activated protein kinase kinase kinase 12 (Homo sapiens) (UniProt Q12852); details: Compound concentration 1000.0 nM
[26] = test system: Receptor-type tyrosine-protein kinase FLT3 (Homo sapiens), P36888 [K663Q]; details: Compound concentration 1000.0 nM
[27] = target: Cyclin-dependent kinase 5 (Homo sapiens) (UniProt Q00535); details: Compound concentration 1000.0 nM
[28] = target: Ribosomal protein S6 kinase beta-1 (Homo sapiens) (UniProt P23443); details: Compound concentration 1000.0 nM
Ribosomal protein S6 kinase beta-1 (Homo sapiens), sequence (P23443 whole entry, looked up): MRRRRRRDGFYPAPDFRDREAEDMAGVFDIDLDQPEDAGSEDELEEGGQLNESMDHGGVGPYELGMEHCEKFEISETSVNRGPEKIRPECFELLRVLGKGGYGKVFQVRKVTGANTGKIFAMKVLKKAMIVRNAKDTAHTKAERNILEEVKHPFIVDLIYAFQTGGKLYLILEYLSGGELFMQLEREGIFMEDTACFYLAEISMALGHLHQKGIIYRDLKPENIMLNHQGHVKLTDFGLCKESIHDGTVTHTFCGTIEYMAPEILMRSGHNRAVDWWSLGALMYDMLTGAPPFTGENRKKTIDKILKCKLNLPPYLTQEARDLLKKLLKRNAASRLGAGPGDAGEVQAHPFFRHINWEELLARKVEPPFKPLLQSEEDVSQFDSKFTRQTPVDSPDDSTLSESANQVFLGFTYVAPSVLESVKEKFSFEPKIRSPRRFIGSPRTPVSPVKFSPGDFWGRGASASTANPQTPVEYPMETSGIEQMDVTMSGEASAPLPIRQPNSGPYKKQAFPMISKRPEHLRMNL

[29] = target: Mast/stem cell growth factor receptor Kit (Homo sapiens) (UniProt P10721); details: Compound concentration 1000.0 nM
[30] = target: Ephrin type-B receptor 4 (Homo sapiens) (UniProt P54760); details: Compound concentration 1000.0 nM
Ephrin type-B receptor 4 (Homo sapiens), sequence (P54760 whole entry): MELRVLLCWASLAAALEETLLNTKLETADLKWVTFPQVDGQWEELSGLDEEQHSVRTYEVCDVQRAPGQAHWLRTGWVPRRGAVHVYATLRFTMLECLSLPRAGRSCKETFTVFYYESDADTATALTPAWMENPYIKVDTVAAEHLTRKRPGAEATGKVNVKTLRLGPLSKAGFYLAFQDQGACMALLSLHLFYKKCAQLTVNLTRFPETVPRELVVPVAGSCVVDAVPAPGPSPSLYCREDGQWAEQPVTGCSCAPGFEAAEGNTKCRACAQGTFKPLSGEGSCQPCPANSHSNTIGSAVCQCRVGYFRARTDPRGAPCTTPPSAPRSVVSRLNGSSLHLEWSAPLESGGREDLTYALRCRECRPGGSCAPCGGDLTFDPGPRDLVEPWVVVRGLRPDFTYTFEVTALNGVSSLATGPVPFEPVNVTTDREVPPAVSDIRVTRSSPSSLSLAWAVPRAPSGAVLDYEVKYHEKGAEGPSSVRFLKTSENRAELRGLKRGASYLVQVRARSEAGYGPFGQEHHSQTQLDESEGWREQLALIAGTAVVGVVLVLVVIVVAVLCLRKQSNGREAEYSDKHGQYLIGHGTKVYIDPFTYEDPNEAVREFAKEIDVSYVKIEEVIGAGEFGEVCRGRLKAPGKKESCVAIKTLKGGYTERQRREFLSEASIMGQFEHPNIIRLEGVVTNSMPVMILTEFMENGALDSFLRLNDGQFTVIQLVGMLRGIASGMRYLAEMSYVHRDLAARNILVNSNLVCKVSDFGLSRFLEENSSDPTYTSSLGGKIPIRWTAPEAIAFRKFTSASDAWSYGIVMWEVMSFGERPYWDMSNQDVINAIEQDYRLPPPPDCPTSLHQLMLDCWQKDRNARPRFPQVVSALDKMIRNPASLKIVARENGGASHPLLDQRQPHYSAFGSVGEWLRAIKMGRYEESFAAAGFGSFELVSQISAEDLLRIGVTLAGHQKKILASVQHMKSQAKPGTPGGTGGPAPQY

[31] = test system: Tyrosine-protein kinase ABL1 (Homo sapiens), P00519 [F317I]; details: Compound concentration 1000.0 nM
[32] = target: Serine/threonine-protein kinase PRP4 homolog (Homo sapiens) (UniProt Q13523); details: Compound concentration 1000.0 nM
[33] = target: Dual specificity mitogen-activated protein kinase kinase 5 (Homo sapiens) (UniProt Q13163); details: Compound concentration 1000.0 nM
[34] = target: Alpha-1D adrenergic receptor (Homo sapiens) (UniProt P25100); details: Compound concentration 10.0 uM
[35] = target: Serine/threonine-protein kinase WNK3 (Homo sapiens) (UniProt Q9BYP7); details: Compound concentration 1000.0 nM
[36] = target: Serine/threonine-protein kinase 16 (Homo sapiens) (UniProt O75716); details: Compound concentration 1000.0 nM
[37] = target: 5-hydroxytryptamine receptor 2C (Homo sapiens) (UniProt P28335); details: Compound concentration 10.0 uM
5-hydroxytryptamine receptor 2C (Homo sapiens), sequence (P28335 whole entry): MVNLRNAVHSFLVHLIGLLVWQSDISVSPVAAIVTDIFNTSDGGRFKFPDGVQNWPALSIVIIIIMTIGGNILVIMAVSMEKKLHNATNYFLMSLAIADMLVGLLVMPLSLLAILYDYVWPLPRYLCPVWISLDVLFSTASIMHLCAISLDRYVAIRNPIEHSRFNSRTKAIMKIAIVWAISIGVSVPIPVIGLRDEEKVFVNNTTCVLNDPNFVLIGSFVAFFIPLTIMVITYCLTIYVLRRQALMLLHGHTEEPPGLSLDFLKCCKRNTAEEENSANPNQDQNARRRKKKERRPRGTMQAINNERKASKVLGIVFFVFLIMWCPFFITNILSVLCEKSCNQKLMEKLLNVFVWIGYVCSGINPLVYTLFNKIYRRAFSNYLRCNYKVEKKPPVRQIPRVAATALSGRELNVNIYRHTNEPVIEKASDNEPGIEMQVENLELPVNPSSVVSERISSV

[38] = target: Tyrosine-protein kinase ITK/TSK (Homo sapiens) (UniProt Q08881); details: Compound concentration 1000.0 nM
[39] = test system: Tyrosine-protein kinase ABL1 (Homo sapiens), P00519 [F317I]; details: Compound concentration 1000.0 nM; remark: listed apart in the source
[40] = target: Proto-oncogene tyrosine-protein kinase receptor Ret (Homo sapiens) (UniProt P07949); details: Compound concentration 1000.0 nM
[41] = target: Bone morphogenetic protein receptor type-1A (Homo sapiens) (UniProt P36894); details: Compound concentration 1000.0 nM
[42] = target: Serine/threonine-protein kinase PAK 5 (Homo sapiens) (UniProt Q9P286); details: Compound concentration 1000.0 nM
[43] = target: Serine/threonine-protein kinase Nek11 (Homo sapiens) (UniProt Q8NG66); details: Compound concentration 1000.0 nM
[44] = target: Calcium/calmodulin-dependent protein kinase type II subunit alpha (Homo sapiens) (UniProt Q9UQM7); details: Compound concentration 1000.0 nM
Calcium/calmodulin-dependent protein kinase type II subunit alpha (Homo sapiens), sequence (Q9UQM7 whole entry): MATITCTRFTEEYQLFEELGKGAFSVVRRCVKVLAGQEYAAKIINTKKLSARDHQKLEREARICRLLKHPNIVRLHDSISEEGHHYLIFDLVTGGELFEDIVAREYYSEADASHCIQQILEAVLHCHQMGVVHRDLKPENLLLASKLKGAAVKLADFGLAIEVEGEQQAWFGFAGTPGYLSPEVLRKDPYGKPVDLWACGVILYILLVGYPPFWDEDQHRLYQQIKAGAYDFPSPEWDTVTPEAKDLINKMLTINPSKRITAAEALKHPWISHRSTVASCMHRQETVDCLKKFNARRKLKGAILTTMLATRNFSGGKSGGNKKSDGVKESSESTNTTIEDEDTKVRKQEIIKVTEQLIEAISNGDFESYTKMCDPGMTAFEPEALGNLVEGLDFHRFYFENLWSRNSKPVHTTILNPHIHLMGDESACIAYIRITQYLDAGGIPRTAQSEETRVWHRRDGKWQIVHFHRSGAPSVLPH

[45] = target: Serine/threonine-protein kinase SBK1 (Homo sapiens) (UniProt Q52WX2); details: Compound concentration 1000.0 nM

CC(=O)C1=C(C)N(c2cccc(C(F)(F)F)c2)C(=O)N[C@@H]1c1ccc(C#N)nc1 [BAY-678]
inactive: residual activity [1] 100% | residual activity [2] 100% | residual activity [3] 87.1% | residual activity [4] 64.2% | residual activity [5] 71.5% | residual activity [6] 89.9% | residual activity [7] 100% | residual activity [8] 94% | inhibition [9] 14.5% | residual activity [10] 96.7% | residual activity [11] 92.6% | residual activity [12] 85.3% | inhibition [13] 4.22% | residual activity [14] 100% | inhibition [15] 3.93% | residual activity [16] 98.8% | residual activity [17] 73.8% | residual activity [18] 100% | residual activity [19] 100% | residual activity [20] 100% | residual activity [21] 82.7% | residual activity [22] 88.1% | residual activity [23] 79.4% | residual activity [24] 100% | residual activity [25] 86.8% | residual activity [26] 100% | residual activity [27] 100% | residual activity [28] 93.8% | residual activity [29] 83.8% | residual activity [30] 100% | residual activity [31] 100% | residual activity [32] 100% | residual activity [33] 100% | inhibition [34] 3.11% | residual activity [35] 100% | residual activity [36] 84.6% | inhibition [37] -2.88% | residual activity [38] 90.4% | residual activity [39] 100% | residual activity [40] 92.4% | residual activity [41] 100% | residual activity [42] 96.2% | residual activity [43] 100% | residual activity [44] 92.5% | residual activity [45] 100%
